Here are results for three compounds from paper PMC11480361, “Design of a Cereblon construct for crystallographic and biophysical studies of protein degraders” (Nature Communications, 2024).

Where “and” joins values, the source holds several entries; their conditions need not be identical. Equal values may be shown once.

Assay [1] has as its target T1, CRBN^midi (Homo sapiens, UniProt Q96SW2, C287N/C343E/C78I/DEL188-248/G302D/I92V/INS187GSG/K116N/L342R/L423I/Q134E/R283W/T359I/V293S).
T1 construct: amino acids 41-187 followed by a Gly-Ser-Gly linker and amino acids 249-426; His6 (N, cleaved yes); made in house; host or cells: E. coli BL21(DE3)
The assay is described as follows: SEC-SAXS of CRBN^midi with binders (radius of gyration). On Rg, Guinier analysis: values in Å. On Rg, P(r) Analysis from AUTOGNOM: values in Å. On dmax, P(r) analysis: values in Å. The note with it: for Rg, P(r) Analysis from AUTOGNOM / dmax, P(r) analysis / Rg, Guinier analysis: Supplementary Table 3; for Rg, P(r) Analysis from AUTOGNOM: apo 26.91 ± 0.04; for dmax, P(r) analysis: apo 172.46; for Rg, Guinier analysis: binder 400 µM (mezigdomide, lenalidomide) or 200 µM (Boc-VcN, Boc-AcQ), apo 26.73 ± 0.06; for RG of ligand-bound CRBN^midi: 200 µM ligand, apo 26.73 Å. The method, then:
Frames from SEC-SAXS that corresponded to the main protein peak, were merged using Chromixs[61] and analyzed using the ATSAS (version 3.2.1) package. Radii of gyration and molecular mass were extrapolated from the Guinier plot using Primus. Pairwise-distance distributions were calculated using GNOM[63]. The dimensionless Kratky plot[49] was obtained by manually plotting (qRg)^2I(q)/I0 against qRg.
The open conformation model was obtained by homology modelling using the SWISS-MODEL webserver (accessed April 18th 2023)[65] with the cryo-EM structure of apo-CRBN (PDB ID: 8CVP)[25] as the input structure.
Background: In gel filtration, larger molecules generally elute earlier.

Assay [2] concerns the target T1, CRBN^midi. The assay is described as follows: Thermal denaturation (turbidity, Prometheus Panta) of CRBN^midi +/- binders, Fig. 2f. The assay is classed as binding. On the set-up: First derivative: unit not given here. The note with it: for increase of Tm / denaturation temperature of CRBN^midi / melting temperature (Tm) of CRBN^midi in presence of binder: 100 µM binder; for increase of Tm / denaturation temperature of CRBN^midi: versus apo; for melting temperature (Tm) of CRBN^midi in presence of binder: apo Tm 44.5 °C; for First derivative: thermal denaturation trace. How it is done:
Protein aggregation was assessed, and turbidity values were calculated by the PR.Panta control software (NanoTemper Technologies). First derivative curves were plotted using Prism software (GraphPad version 10).

The mark [3] stands for this setting: T[°C] 86.7721 lenalidomide, 86.7698 Boc-VcN, 86.7691 Boc-AcQ.
Setting [4] is: T[°C] 86.8918 lenalidomide, 86.8895 Boc-VcN, 86.8888 Boc-AcQ.
The mark [5] stands for this setting: T[°C] 87.0114 lenalidomide, 87.0091 Boc-VcN, 87.0084 Boc-AcQ.
Where [6] appears, read: T[°C] 87.1311 lenalidomide, 87.1288 Boc-VcN, 87.1281 Boc-AcQ.
[7] abbreviates: T[°C] 87.2507 lenalidomide, 87.2484 Boc-VcN, 87.2477 Boc-AcQ.
[8] abbreviates: T[°C] 87.3704 lenalidomide, 87.3681 Boc-VcN, 87.3674 Boc-AcQ.
Where [9] appears, read: T[°C] 87.49 lenalidomide, 87.4877 Boc-VcN, 87.487 Boc-AcQ.
The mark [10] stands for this setting: T[°C] 87.6097 lenalidomide, 87.6074 Boc-VcN, 87.6067 Boc-AcQ.
[11] abbreviates: T[°C] 87.7294 lenalidomide, 87.727 Boc-VcN, 87.7263 Boc-AcQ.
Where [12] appears, read: T[°C] 87.849 lenalidomide, 87.8467 Boc-VcN, 87.846 Boc-AcQ.
The mark [13] stands for this setting: T[°C] 87.9687 lenalidomide, 87.9664 Boc-VcN, 87.9656 Boc-AcQ.
Setting [14] is: T[°C] 88.0883 lenalidomide, 88.086 Boc-VcN, 88.0853 Boc-AcQ.
The mark [15] stands for this setting: T[°C] 88.208 lenalidomide, 88.2057 Boc-VcN, 88.205 Boc-AcQ.
Where [16] appears, read: T[°C] 88.3276 lenalidomide, 88.3253 Boc-VcN, 88.3246 Boc-AcQ.
Setting [17] is: T[°C] 88.4473 lenalidomide, 88.445 Boc-VcN, 88.4443 Boc-AcQ.
Where [18] appears, read: T[°C] 88.567 lenalidomide, 88.5646 Boc-VcN, 88.5639 Boc-AcQ.
The mark [19] stands for this setting: T[°C] 88.6866 lenalidomide, 88.6843 Boc-VcN, 88.6836 Boc-AcQ.
The mark [20] stands for this setting: T[°C] 88.8063 lenalidomide, 88.8039 Boc-VcN, 88.8032 Boc-AcQ.
The mark [21] stands for this setting: T[°C] 88.9259 lenalidomide, 88.9236 Boc-VcN, 88.9229 Boc-AcQ.
[22] abbreviates: T[°C] 89.0456 lenalidomide, 89.0432 Boc-VcN, 89.0425 Boc-AcQ.
The mark [23] stands for this setting: T[°C] 89.1653 lenalidomide, 89.1629 Boc-VcN, 89.1622 Boc-AcQ.
Where [24] appears, read: T[°C] 89.2849 lenalidomide, 89.2825 Boc-VcN, 89.2818 Boc-AcQ.
Setting [25] is: T[°C] 89.4046 lenalidomide, 89.4022 Boc-VcN, 89.4015 Boc-AcQ.
Where [26] appears, read: T[°C] 89.5242 lenalidomide, 89.5218 Boc-VcN, 89.5211 Boc-AcQ.
[27] abbreviates: T[°C] 89.6439 lenalidomide, 89.6415 Boc-VcN, 89.6408 Boc-AcQ.
[28] abbreviates: T[°C] 89.7635 lenalidomide, 89.7612 Boc-VcN, 89.7604 Boc-AcQ.
The mark [29] stands for this setting: T[°C] 89.8832 lenalidomide, 89.8808 Boc-VcN, 89.8801 Boc-AcQ.
[30] abbreviates: T[°C] 90.0028 lenalidomide, 90.0005 Boc-VcN, 89.9997 Boc-AcQ.

T1 sequence (Q96SW2 with tags, fused parts or gaps with the stated changes limits assumed): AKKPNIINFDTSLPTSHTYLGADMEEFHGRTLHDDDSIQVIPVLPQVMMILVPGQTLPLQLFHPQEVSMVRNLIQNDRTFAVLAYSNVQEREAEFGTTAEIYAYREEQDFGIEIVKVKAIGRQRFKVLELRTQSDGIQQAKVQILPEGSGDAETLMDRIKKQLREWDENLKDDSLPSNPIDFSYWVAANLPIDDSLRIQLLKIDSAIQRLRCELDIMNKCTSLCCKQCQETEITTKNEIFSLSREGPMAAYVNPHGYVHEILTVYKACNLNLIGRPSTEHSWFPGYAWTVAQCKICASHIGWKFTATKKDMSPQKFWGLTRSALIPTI

Regarding `N#Cc1ccc(N2CCN(Cc3ccc(COc4cccc5c4CN([C@H]4CCC(=O)NC4=O)C5=O)cc3)CC2)c(F)c1` [mezigdomide, Mezigdomide], in assay [1], the “Rg, P(r) Analysis from AUTOGNOM” value is given as 22.45 ± 0.04 Å; the “dmax, P(r) analysis” value is on record as 145.02 Å; the “Rg, Guinier analysis” value is 22.79 ± 0.06 Å.
For `C[C@H](NC(=O)OC(C)(C)C)C(=O)N[C@H]1CCC(=O)NC1=O` [Boc-AcQ, tert-butyl ((S)-1-(((S)-2,6-dioxopiperidin-3-yl)amino)-1-oxopropan-2-yl)carbamate], the “increase of Tm / denaturation temperature of CRBN^midi” value in assay [2] was found to be 8.3 °C. Also, the “melting temperature (Tm) of CRBN^midi in presence of binder” value in assay [2] was 52.8 °C. The First derivative was -0.02853 in assay [2] (setting [3]); -0.0315 in assay [2] (setting [4]); -0.03497 in assay [2] (setting [5]); -0.03881 in assay [2] (setting [6]); -0.04291 in assay [2] (setting [7]); -0.04716 in assay [2] (setting [8]). The First derivative in assay [2] (setting [9]) is given as -0.05142; in assay [2] (setting [10]), -0.05268; in assay [2] (setting [11]), -0.05356; in assay [2] (setting [12]) it was -0.05436; in assay [2] (setting [13]), -0.05515; in assay [2] (setting [14]), -0.0559. Besides, the First derivative in assay [2] (setting [15]) was -0.05659; in assay [2] (setting [16]) it was -0.05718; in assay [2] (setting [17]), -0.05764; in assay [2] (setting [18]), -0.05798; in assay [2] (setting [19]), -0.05817; in assay [2] (setting [20]), -0.05821. Besides, the First derivative in assay [2] (setting [21]) was -0.0581; in assay [2] (setting [22]), -0.05783; in assay [2] (setting [23]), -0.05741; in assay [2] (setting [24]), -0.05684; in assay [2] (setting [25]), -0.05611; in assay [2] (setting [26]), -0.05525. Also, the First derivative is listed as -0.05424 in assay [2] (setting [27]), -0.05311 in assay [2] (setting [28]), -0.05186 in assay [2] (setting [29]) and -0.0505 in assay [2] (setting [30]). Besides, the “RG of ligand-bound CRBN^midi” value in assay [1] was 24.29 Å and 24.3 Å. In addition, the “Rg, P(r) Analysis from AUTOGNOM” value in assay [1] is given as 24.25 ± 0.04 Å. Further, the “dmax, P(r) analysis” value in assay [1] amounted to 146.92 Å. For the same compound, the “Rg, Guinier analysis” value in assay [1] is given as 24.29 ± 0.05 Å.
In the case of `CC(C)[C@H](NC(=O)OC(C)(C)C)C(=O)NC1CC(=O)NC1=O` (stereo partly drawn) [Boc-VcN, Tert-butyl ((2S)-1-((2,5-dioxopyrrolidin-3-yl)amino)-3-methyl-1-oxobutan-2-yl)carbamate], the “increase of Tm / denaturation temperature of CRBN^midi” value in assay [2] was determined as 11.1 °C. In addition, in assay [2], the “melting temperature (Tm) of CRBN^midi in presence of binder” value came to 55.6 °C. In addition, the First derivative in assay [2] (setting [3]) is given as -0.05947; in assay [2] (setting [4]), -0.05823; in assay [2] (setting [5]), -0.05736; in assay [2] (setting [6]) it was -0.05707; in assay [2] (setting [7]), -0.05755; in assay [2] (setting [8]), -0.05896. The First derivative in assay [2] (setting [9]) is given as -0.06138; in assay [2] (setting [10]) it was -0.06805; in assay [2] (setting [11]), -0.07618; in assay [2] (setting [12]), -0.08482; in assay [2] (setting [13]), -0.09355; in assay [2] (setting [14]) it was -0.1023. In addition, the First derivative in assay [2] (setting [15]) is -0.1109; in assay [2] (setting [16]), -0.1196; in assay [2] (setting [17]) it was -0.1282; in assay [2] (setting [18]), -0.1368; in assay [2] (setting [19]), -0.1455; in assay [2] (setting [20]), -0.1543. Further, the First derivative in assay [2] (setting [21]) is on record as -0.1632; in assay [2] (setting [22]), -0.1723; in assay [2] (setting [23]), -0.1815; in assay [2] (setting [24]), -0.191; in assay [2] (setting [25]), -0.2007; in assay [2] (setting [26]), -0.2106. In addition, the First derivative in assay [2] (setting [27]) is on record as -0.2208; in assay [2] (setting [28]) it was -0.2313; in assay [2] (setting [29]), -0.2421; in assay [2] (setting [30]) it was -0.2531. Moreover, in assay [1], the “RG of ligand-bound CRBN^midi” value was 23.41 Å and 23.4 Å. In addition, in assay [1], the “Rg, P(r) Analysis from AUTOGNOM” value came out at 22.93 ± 0.03 Å. Also, in assay [1], the “dmax, P(r) analysis” value is on record as 137.14 Å. Also, the “Rg, Guinier analysis” value in assay [1] came to 23.41 ± 0.05 Å.
